Laboratory results published in patent US20100158808A1, “Altered Activity of Toll-Like Receptors” (priority 2003, published 2010).

What was measured:
TLR4 [1] = target: T1, TLR4 (Mus musculus, UniProt Q9JHF9+Q9QUK6); experiment: TNF-α secretion by dendritic cells (APC) cocultured with PAEC, ELISA; format: cell-based; details: cocultures of PAEC and murine APCs, TLR4-positive or -negative
T1 sequence (Q9QUK6 26-835): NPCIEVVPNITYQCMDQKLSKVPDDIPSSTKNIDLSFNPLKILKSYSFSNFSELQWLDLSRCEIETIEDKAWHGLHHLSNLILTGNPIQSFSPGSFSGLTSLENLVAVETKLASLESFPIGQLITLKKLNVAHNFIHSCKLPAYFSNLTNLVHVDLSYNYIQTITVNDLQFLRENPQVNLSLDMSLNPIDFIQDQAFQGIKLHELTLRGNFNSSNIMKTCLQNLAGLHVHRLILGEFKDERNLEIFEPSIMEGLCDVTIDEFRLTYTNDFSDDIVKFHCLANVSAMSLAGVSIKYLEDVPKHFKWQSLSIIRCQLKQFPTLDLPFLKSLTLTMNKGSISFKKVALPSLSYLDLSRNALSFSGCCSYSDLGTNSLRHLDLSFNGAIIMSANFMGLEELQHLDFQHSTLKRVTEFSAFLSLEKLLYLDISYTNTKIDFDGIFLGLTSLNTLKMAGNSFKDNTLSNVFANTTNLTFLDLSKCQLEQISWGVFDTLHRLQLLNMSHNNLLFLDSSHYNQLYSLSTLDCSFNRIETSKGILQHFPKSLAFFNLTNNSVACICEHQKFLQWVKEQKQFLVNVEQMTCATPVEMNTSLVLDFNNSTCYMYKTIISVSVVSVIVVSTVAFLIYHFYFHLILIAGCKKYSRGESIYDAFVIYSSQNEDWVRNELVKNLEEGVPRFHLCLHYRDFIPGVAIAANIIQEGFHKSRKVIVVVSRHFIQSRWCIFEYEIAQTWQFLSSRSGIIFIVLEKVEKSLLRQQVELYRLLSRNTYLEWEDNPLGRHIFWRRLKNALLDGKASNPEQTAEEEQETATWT
T1 sequence (Q9JHF9 19-160): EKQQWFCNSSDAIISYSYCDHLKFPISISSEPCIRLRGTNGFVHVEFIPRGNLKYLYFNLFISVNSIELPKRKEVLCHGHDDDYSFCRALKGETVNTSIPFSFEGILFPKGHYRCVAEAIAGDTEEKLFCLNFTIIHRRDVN
Protocol: Cell Isolation and Culture. Dendritic cells were generated from murine bone marrow cultures as previously described (Kodaira et al. (2000) J. Immunol. 165:1599). At day 6 or 7 of culture, nonadherent cells and loosely adherent proliferating dendritic cell aggregates were harvested for analysis or stimulation. PAEC were cultured to confluence and their identity was confirmed as previously described (Ryan and Maxwell (1986) J. Tissue Cult. Methods 10:3).
Cell Culture Stimulation. Dendritic cells (2×10^6 per ml) cocultured with confluent monolayers of PAEC in 96-well plates were stimulated with 10 μg/ml chondroitin sulfate, 500 ng/ml CpG DNA, 10 ng/ml LPS, 10 μg/ml HS, 50 μg/ml zymosan, or PBS, unless otherwise indicated. To control for purity, agonists were pretreated with END-X B15, or mixed with Limulus anti-LPS factor before stimulation of cells, as indicated. In some experiments, agonists were boiled before use for 60 minutes at 100° C.
Cytokine Quantification. Age-matched female mice were injected in the peritoneum with 0.5 U of elastase, 5 mg of HS, 200 U of heparin, 150 μg of CpG DNA, or PBS with a total volume of 250 μl. One hour and 3 hours after injection, 100-μl blood samples were collected from the tail vein. […] Concentrations of TNF-α were analyzed by enzyme-linked sandwich ELISA (R&D Systems, Minneapolis, Minn.). […]

CD86 = CD86 expression in spleen after injection into the spleens of mice; format: in vivo; details: for Expression of CD86 in the spleen: injection into spleen of mice
Protocol: Surgical Procedures and Immunohistochemistry. Mice were anesthetized and the spleen was directly visualized through an incision in the lateral abdominal wall. Particular substances in […] of PBS were injected into the spleen. Spleens were harvested after 12 hours and sections were frozen in liquid nitrogen. Tissue sections were prepared and stained as described in (Dempsey et al. supra) with the following modifications. Secondary detection antibodies were diluted in M.O.M. diluent (Vector Laboratories, Burlingame, Calif.) and preabsorbed with mouse serum (Jackson ImmunoResearch Laboratories, West Grove, Pa.). Fluorescent images were converted to grayscale using SPOT software (Diagnostic Instruments, Sterling Heights, Mich.).
To determine whether elastase activity on ECM activates TLR4 responses in living tissues, elastase was injected into the spleens of mice. Such treatment typically causes rapid shedding of HS proteoglycans from the tissue, especially from blood vessels (Johnson et al. (2004) J. Immunol. (Cutting Edge) 172:20-24). The spleens were removed and examined for expression of CD86, a protein expressed in response to TLR4 signaling (Kaisho and Akira (2002) Biochim. Biophys. Acta 1589:1-13). […] In contrast, the expression of CD86 observed in leukocytes detached from ECM and stimulated with LPS or HS is considerably heightened (Johnson et al. supra). […] The changes in CD86 expression induced by elastase required TLR4, as the increase in CD86 was not observed when elastase was injected into spleens of mice lacking TLR4 function. Thus, the ECM may limit TLR4 signaling in vivo, and cleavage of ECM can trigger TLR4 signaling in living tissues.

TLR4 [2] = experiment: Serum TNF-α after i.p. injection in mice, ELISA; format: in vivo
Protocol: Cytokine Quantification. Age-matched female mice were injected in the peritoneum with 0.5 U of elastase, 5 mg of HS, 200 U of heparin, 150 μg of CpG DNA, or PBS with a total volume of 250 μl. One hour and 3 hours after injection, 100-μl blood samples were collected from the tail vein. Cell supernatants and serum samples were immediately frozen at −20° C. until analysis. Concentrations of TNF-α were analyzed by enzyme-linked sandwich ELISA (R&D Systems, Minneapolis, Minn.).

[3] = TLR4-mutant mice, up to 3 hours
[4] = wild-type mice, 1 hour after treatment

| Substance | TNF-α secretion by APC (TLR4 [1]) | Expression of CD86 in the spleen (CD86) | Increase in CD86 in the spleen (CD86; mice lacking TLR4 function) | Serum TNF-α (TLR4 [2]; [3]) | Serum TNF-α (TLR4 [2]; [4]) |
| --- | --- | --- | --- | --- | --- |
| elastase: pancreatic elastase (Calbiochem; type IV porcine pancreatic elastase, Sigma-Aldrich), protease that cleaves ECM proteins | secreted TNF-α in a TLR4-dependent manner | profoundly increased | not observed | not detectable | high serum levels of TNF-α |
| heparan sulfate [HS] | secreted TNF-α in a TLR4-dependent manner | modestly increased | – | not detectable | high serum levels of TNF-α |
| lipopolysaccharide [LPS] | – | modestly increased | – | – | – |
